The text below walks through data of patent US20060223790A1, “Modulation of Microglial by Nicotinic Medications” (University of South Florida, priority 2004, published 2006).

Experiment [1] concerns APP transgenic mice. The following applies: cited from earlier work; for Aβ deposition: APP transgenic mice.
Experiment [2] concerns primary cultured microglial cells. In kind it is cell-based, mouse.
The subject of experiment [3] is microglia. The following applies: cited from earlier work.
Experiment [4] has as its system primary cultured microglial cells. In kind it is cell-based, mouse. The source holds these as a separate data set.
Experiment [5] concerns p44/42 MAPK. In kind it is cell-based, mouse.

On to `Oc1c(I)cc(Cl)c2cccnc12` [clioquinol], for which, in experiment [1], the Aβ deposition result is listed as “reduced”.

Turning to `COc1cc(/C=C/C(=O)CC(=O)/C=C/c2ccc(O)c(OC)c2)ccc1O` [curcumin], the Aβ deposition entry in experiment [1] is listed as “reduced”.

For `CC(C)Cc1ccc(C(C)C(=O)O)cc1` (stereo not shown) [ibuprofen], the Aβ deposition result in experiment [1] is “reduced”.

Turning to `CN1CCCC1c1cccnc1` (stereo not shown) [nicotine], in experiment [2], the “HIV-1 gp120/IFN-Υ-induced TNF-α production” value is on record as “slight reduction”. Besides, in experiment [3], the “LPS-induced TNF-α release” value is on record as “inhibit” and the “microglial activation induced by bacterial endotoxin (LPS)” value is on record as “reduced”. Moreover, the “reduction in β-amyloid plaque” value in experiment [1] (mouse, in vivo) is given as “comparable”. Also, the “HIV-1 gp120/IFN-Υ-induced NO release” value in experiment [4] is given as “slight reduction”.

α-bungarotoxin: the “effect on galantamine/nicotine inhibition of phosphorylation of p44/42 MAPK” value in experiment [5] is given as “significantly attenuated”. Further, the “effect on galantamine/nicotine inhibition of microglial NO release” value in experiment [4] is on record as “significantly attenuates”.
